Entries after “also recorded” stand apart in the source; their conditions may differ. Read-outs that look alike come from different tables or passages of the source. Marks after values point to notes of the source that are not given here.
Tests used:
[1] = molecular target: T1, Human brain derived TDP-43 aggregates (Homo sapiens, UniProt Q13148); test: Micro-radiobinding competition assay on human FTD sarkosyl-insoluble brain extracts; type: binding; conditions: for Human brain derived TDP-43 aggregates Mean % competition at 250 nM: 250 nM test compound; for Human brain derived TDP-43 aggregates Mean % competition at 2 μM: 2 μM test compound; for Ki: 0.24 nM to 2 μM test compound
T1 construct: A sample of brain tissue (frontal or temporal cortex) was homogenized; from tissue; host or cells: sarkosyl-insoluble fraction of human FTD brain (frontal or temporal cortex)
T1 sequence (Q13148 whole entry): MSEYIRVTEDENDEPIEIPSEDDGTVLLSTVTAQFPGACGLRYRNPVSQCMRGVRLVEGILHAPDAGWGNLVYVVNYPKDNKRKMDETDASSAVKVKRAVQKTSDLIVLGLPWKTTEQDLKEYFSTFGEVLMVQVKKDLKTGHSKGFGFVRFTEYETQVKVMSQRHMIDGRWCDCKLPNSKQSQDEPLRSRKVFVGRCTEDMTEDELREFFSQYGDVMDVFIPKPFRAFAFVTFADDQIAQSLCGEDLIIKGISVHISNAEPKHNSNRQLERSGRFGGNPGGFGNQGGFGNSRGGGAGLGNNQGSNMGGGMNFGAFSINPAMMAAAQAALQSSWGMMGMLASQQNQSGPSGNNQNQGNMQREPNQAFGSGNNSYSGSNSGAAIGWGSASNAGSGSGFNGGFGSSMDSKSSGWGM
Method: Human brain extracts were prepared as described in Laferriere et al., 2019, Nature Neurosc. A sample of brain tissue (frontal or temporal cortex) was homogenized at 1:4 (w/v) ratio in the homogenization-solubilization (HS) buffer at 4° C. using tissue homogenizer (Precellys) with CKmix homogenization tubes. The following sequence was used for homogenization: 3 cycles of 30 seconds at 5000 rpm (with 15 seconds pause between each cycle). Homogenized samples were aliquoted and stored at −80° C. in 1.5 mL low protein binding tubes.
Brain homogenates were thawed on ice and resuspended in HS buffer to obtain a final concentration of 2% sarkosyl, 1 unit/μL Benzonase and 1 mM MgCl2. The samples were then incubated at 37° C. under constant shaking at 600 rpm on a thermomixer for 45 minutes (min). The supernatants were collected in a new tube (sarkosyl-soluble fraction, S1). The pellet was resuspended in 1000 μL of myelin floatation buffer and centrifuged at 20,000 g for 60 min at 4° C. The supernatant was carefully removed to remove all the floating lipids. This step was repeated if all the lipids could not be removed in a single step. The pellet was subsequently washed with Phosphate-Buffered Saline (PBS) and centrifuged for 30 min at 20,000 g at 4° C. The final pellet was resuspended in 200 μL PBS and stored at −80° C. (sarkosyl-insoluble fraction). The samples were analyzed by immunoblotting in denaturing conditions.
Human FTD sarkosyl-insoluble brain extracts were spotted onto microarray slides. The slides were incubated with [^3H]-Compound 52 or [^3H]-Compound 16 ligands at 75 nM or 40 nM, respectively, and the example compounds (non-radiolabelled) at 2 μM and 250 nM. In some cases, the non-radiolabelled example compounds were further assessed for a range of different concentrations, varying from 0.24 nM to 2 μM for determination of the inhibition constant (Ki). After incubation, slides were washed and scanned by a real-time autoradiography system (BeaQuant, ai4R). Quantification of the signal was performed by using the Beamage image analysis software (ai4R). Non-specific signal was determined with an excess of non-radiolabelled compound 52 or compound 16 (2 μM) and specific binding was calculated by subtracting the non-specific signal from the total signal. Competition was calculated as percent, where 0% was defined as the specific binding in the presence of vehicle and 100% as the values obtained in the presence of excess of the non-radiolabelled compound 52 or compound 16. Ki values were calculated in GraphPad Prism7 by applying a nonlinear regression curve fit using a one site, specific binding model. Measurements were performed with at least two technical replicates in the two-concentration competition experiment and with one technical replicate in the experiments including a range of concentrations. For compounds tested in more than one experiment, the mean of the replicates or Ki values in independent experiments is reported.

[2] = molecular target: T2, pTDP-43 aggregates in FTLD-TDP brain sections (Homo sapiens, UniProt Q13148); test: Micro-autoradiography staining in brain sections from patients with FTD; type: binding; conditions: 60 nM radioligand, frontal cortex brain sections from FTLD-TDP donors
T2 construct: from tissue; host or cells: frozen post-mortem human brain sections from FTLD-TDP donors
T2 sequence (Q13148 whole entry): as above
Method: All tissues were collected from donors for or from whom a written informed consent for a brain autopsy and the use of the material and clinical information for research purposes had been obtained by the respective brain banks. All samples were anonymized and coded. Frozen brain tissue blocks with confirmed TDP-43 pathology upon autopsy were processed using a cryotome to generate sections of 10 μm in thickness and mounted on glass slides. Sections were kept at −80° C. until use.
Brain sections were immunostained using a commercially available antibody, specific for phosphorylated serine at amino acid 409/410 (anti-pTDP-43 pS409/410, Cosmobio, TIP-PTD-P02). Sections were fixed for 15 minutes at 4° C. with 4% formaldehyde (Sigma, 252549) and washed three times for five minutes with 1×PBS (Dulbecco's phosphate buffered saline, Sigma D1408) at room temperature. Next, sections were saturated and permeabilized in blocking buffer (PBS, 10% normal goat serum (NGS), 0.25% Triton X-100) for one hour at room temperature and incubated overnight at 4° C. with primary antibody against pTDP-43 (diluted at 1/250 in PBS, 5% NGS, 0.25% Triton X-100). The following day, sections were washed three times for five minutes with 1×PBS before incubation with a secondary, AlexaFluor647-labeled goat-anti-rabbit antibody (Abcam, ab150079, diluted at 1/500 in PBS) for 45 minutes at room temperature. […]

[3] = molecular target: T3, recombinant flag-tagged TDP-43 aggregates (Homo sapiens, UniProt Q13148); test: Kd determination on recombinant TDP-43 aggregates with filter-binding assay
T3 construct: FLAG
T3 sequence (Q13148 whole entry): as above
Method: The TDP-43 aggregation protocol (Shimonaka et al., 2016) was implemented to generate TDP-43 aggregates. The protein preparation of high purity without any degradation was used for the aggregation procedure.
2.1 Kd Determination on Recombinant TDP-43 Aggregates with Filter-Binding Assay of [^3H]-Compound 1
Recombinant flag-tagged TDP-43 aggregates (1.3 μM) were incubated in the presence of [^3H]-Compound 1 with increasing concentrations of radioligand from 0 to 150 nM in a total reaction volume of 100 μL, for two hours at room temperature. 45 μL of sample (corresponding to each concentration) in duplicate was filtered under vacuum on a UniFilter-96 GF/C plate. The filters were washed 5 times with ice-cold buffer (50 mM Tris pH 7.4) and then dried overnight. 30 μL scintillation liquid was added in each well for 30 minutes before quantifying the signal on a Microbeta Trilux device (Perkin Elmer). The non-specific signal was determined with an excess of unlabeled Compound 1 (10 μM) and the specific binding was calculated by subtracting the non-specific signal from the total signal.

[4] = radioligand [3H]-Compound 16 (40 nM)
[5] = radioligand [3H]-Compound 52 (75 nM)

Human brain derived TDP-43 aggregates Mean % competition at 250 nM [1, 4]	Human brain derived TDP-43 aggregates Mean % competition at 2 μM [1, 4]	Human brain derived TDP-43 aggregates Mean % competition at 250 nM [1, 5]	Human brain derived TDP-43 aggregates Mean % competition at 2 μM [1, 5]	Ki [1, 5]	Compound	further results
47.2^c %	67.7^c %	–	–	–	N#Cc1c(N)cccc1N1CCc2nc(-c3cnc(N4CC[C@H](F)C4)cn3)sc2C1=O [Example 41]	–
–	–	43.8ª %	79.6ª %	–	Nc1cc(N2CCc3nc(-c4cnc(N5CCCC5)nc4)sc3C2=O)ccc1F [Example 42]	–
–	–	45.0ª %	69.4ª %	–	Nc1ccc(N2CCc3nc(-c4cnc(N5CCCC5)nc4)sc3C2=O)cc1F [Example 43]	–
–	–	47.0ª %	64.3ª %	–	Cn1cc(N2CCc3nc(-c4cnc(N5CCC[C@H](F)C5)nc4)sc3C2=O)cn1 [Example 45]	–
–	–	62.5ª %	85.9ª %	0.093 µM	Nc1cc(N2CCc3nc(-c4cnc(N5CC[C@@H](F)C5)nc4)sc3C2=O)ccc1F [Example 46]	–
–	–	50.2ª %	81.7ª %	0.152 µM	Nc1cccc(N2CCc3nc(-c4cnc(N5CC[C@H](F)C5)nc4)sc3C2=O)c1F [Example 47]	–
–	–	46.9ª %	77.9ª %	0.0736 µM	Nc1cccc(N2CCc3nc(-c4cnc(N5CCC[C@H](F)C5)nc4)sc3C2=O)c1F [Example 48]	–
63.1^c %	65.5^c %	–	–	–	Nc1cc(N2CCc3nc(-c4cnc(N5CCC(F)CC5)nc4)sc3C2=O)ccc1F [Example 49]	Ki [1, 4]: 0.117 µM
52.8^c %	63.4^c %	–	–	–	Nc1cccc(N2CCc3nc(-c4cnc(N5CCC[C@@H](F)C5)nc4)sc3C2=O)c1F [Example 50]	–
–	–	–	–	–	Cn1cc(N2CCc3nc(-c4ccc(N5CC[C@@H](F)C5)nc4)sc3C2=O)cn1 [[^3H]-Compound 1, (R)-2-(6-(3-fluoropyrrolidin-1-yl)pyridin-3-yl)-5-(1-methyl-1H-pyrazol-4-yl)-6,7-dihydrothiazolo[5,4-c]pyridin-4(5H)-one]	micro-autoradiography signal (silver grains) co-localization with pTDP-43 antibody staining [2]: Accumulation of silver grains on pTDP-43 aggregates; also recorded: showed co-localization with pTDP-43 aggregates; Kd ([3]; data from three independent experiments, read-out: average Kd): 0.0184 ± 0.004 µM; Kd ([3]; filter-binding assay, tritiated radioligand 0 to 150 nM, one-site specific binding model (FIG. 1), read-out: Kd value on recombinant flag-tagged TDP-43 aggregates): 0.015 µM; specific binding to recombinant TDP-43 aggregates ([3]; filter-binding assay, non-specific signal subtracted): high specific binding

Source: patent US20240336627A1, “NOVEL COMPOUNDS FOR THE DIAGNOSIS OF TDP-43 PROTEINOPATHIES” (AC IMMUNE SA, priority 2021, published 2024)
